Results from article PMC11079024, “Identification of a family of species-selective complex I inhibitors as potential anthelmintics” (Nature Communications, 2024).
Where two headings read alike, the source gives them in different places.

How the values were obtained:
L1 wild-type C. elegans [1] = details: for Screen "Hit": 50 μM
L1 wild-type C. elegans [2] = experiment: microbe, parasite or virus in culture; details: Caenorhabditis elegans, read-out: C. elegans KCN Survival Assay LC50, estimated from fitted dose-response curves; mean of at least two biological replicates
in vitro = details: human; for CC50 at 2 days: HEK293 Cell Viability Assay LC50, HEK293 cells, estimated from fitted dose-response curves; for viability at 2 days, 3.13 µM / viability at 2 days, 6.25 µM / viability at 2 days, 12.5 µM / viability at 2 days, 25 µM / viability at 2 days, 50 µM / viability at 2 days, 100 µM: HEK293 cells (Flp-In-293), HEK293 viability
[3] = target: B. taurus (heart) complex I (Bos taurus, UniProt P03887+P17694+P42026); experiment: biochemical; format: biochemical; details: for IC50: B. taurus heart mitochondria, read-out: B. taurus Complex I IC50; for activity at 0.0001 µM / activity at 0.0005 µM / activity at 0.001 µM / activity at 0.0025 µM / activity at 0.005 µM / activity at 0.013 µM / activity at 0.025 µM / activity at 0.063 µM / activity at 0.125 µM / activity at 0.313 µM / activity at 0.625 µM / activity at 1.5 µM / activity at 3 µM / activity at 15 µM / activity at 37.5 µM / activity at 75 µM: read-out: B. taurus mitochondrial complex I activity; for Log IC50 B. taurus complex I: log10 of IC50 in µM, B. taurus mitochondria
In short: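 Complex I activity followed as DCIP reduction (600 nm, 30 s reads, 15 min) with 80 μM NADH and 60 μM decylubiquinone in 25 mM KPi pH 7.5 containing 2 μM antimycin A and 2 mM KCN. Freeze-thawed mouse or bovine heart mitochondria at 0.2 mg/mL; initial-rate percent of solvent control, single-point 100 μM or dose-response.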

[4] = system: ben-1 mutant (ECA882) C. elegans; experiment: microbe, parasite or virus in culture; details: Caenorhabditis elegans
In short: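 L1 larvae (~2 worms/μL in M9) in liquid NGM with 2-fold concentrated E. coli HB101, compound at 1% DMSO, 6 days at 20 °C shaking 165 rpm. Well images scored as summed worm-associated pixels, normalized to DMSO controls; relative viability averaged over at least three biological replicates.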

[5] = Dose 0.2 µM, mean of at least three biological replicates
[6] = read-out: C. elegans (ben-1) Development & Viability Assay LC50
[7] = read-out: C. elegans ben-1(e1880) development/viability
[8] = read-out: C. elegans ben-1 log10 LC50 (converted)

B. taurus (heart) complex I, sequence (P03887 whole entry): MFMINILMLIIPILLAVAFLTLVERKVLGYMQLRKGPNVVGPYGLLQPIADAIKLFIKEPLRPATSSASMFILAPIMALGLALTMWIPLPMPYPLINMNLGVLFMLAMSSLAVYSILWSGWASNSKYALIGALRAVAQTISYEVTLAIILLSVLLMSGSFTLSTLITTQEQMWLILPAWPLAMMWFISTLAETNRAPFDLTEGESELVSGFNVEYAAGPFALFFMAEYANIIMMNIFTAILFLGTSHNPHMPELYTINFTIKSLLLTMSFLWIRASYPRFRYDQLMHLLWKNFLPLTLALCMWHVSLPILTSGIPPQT
B. taurus (heart) complex I, sequence (P17694 34-463): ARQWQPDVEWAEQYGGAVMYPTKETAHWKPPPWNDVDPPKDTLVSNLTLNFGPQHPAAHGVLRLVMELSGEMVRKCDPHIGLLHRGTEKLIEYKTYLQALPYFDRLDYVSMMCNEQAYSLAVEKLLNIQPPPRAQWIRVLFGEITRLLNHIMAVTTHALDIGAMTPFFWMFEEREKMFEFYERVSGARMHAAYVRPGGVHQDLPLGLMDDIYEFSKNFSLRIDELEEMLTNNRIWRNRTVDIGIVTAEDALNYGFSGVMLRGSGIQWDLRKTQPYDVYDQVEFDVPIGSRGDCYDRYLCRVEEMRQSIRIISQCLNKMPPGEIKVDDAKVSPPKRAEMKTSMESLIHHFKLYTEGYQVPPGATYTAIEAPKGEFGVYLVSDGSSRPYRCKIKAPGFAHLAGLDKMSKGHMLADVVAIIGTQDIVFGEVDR
B. taurus (heart) complex I, sequence (P42026 38-216): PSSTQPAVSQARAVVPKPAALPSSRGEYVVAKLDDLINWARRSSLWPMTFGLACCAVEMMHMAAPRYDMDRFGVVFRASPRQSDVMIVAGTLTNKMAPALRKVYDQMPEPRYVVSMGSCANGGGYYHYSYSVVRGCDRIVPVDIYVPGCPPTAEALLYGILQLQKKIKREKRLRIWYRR

Compound: Cc1nc2ccccc2n1Cc1ccc(Cl)c(Cl)c1 [Compound 5655567]
- Screen "Hit" (L1 wild-type C. elegans [1]; KCN survival assay, hit = relative motility below 0.25): Y (hits were identified as compounds that reduced relative motility below 0.25 (75% reduction))
- C. elegans KCN Survival (L1 wild-type C. elegans [1]; [5]): 0.934
- C. elegans KCN Survival (L1 wild-type C. elegans [1]; Dose 0.39 µM): 0.972
- C. elegans KCN Survival (L1 wild-type C. elegans [1]; Dose 1.56 µM): 0.973
- C. elegans KCN Survival (L1 wild-type C. elegans [1]; Dose 3.13 µM): 0.953
- C. elegans KCN Survival (L1 wild-type C. elegans [1]; Dose 6.25 µM): 0.756
- C. elegans KCN Survival (L1 wild-type C. elegans [1]; Dose 12.5 µM): 0.219
- C. elegans KCN Survival (L1 wild-type C. elegans [1]; Dose 25 µM): 0.111
- C. elegans KCN Survival (L1 wild-type C. elegans [1]; Dose 50 µM): 0.120
- C. elegans KCN Survival (L1 wild-type C. elegans [1]; Dose 100 µM): 0.176
- LC50 (L1 wild-type C. elegans [2]): 8.26 µM
- CC50 at 2 days (in vitro; mean of at least two biological replicates): 64.5 µM
- viability at 2 days, 3.13 µM (in vitro): 100%
- viability at 2 days, 6.25 µM (in vitro): 100%
- viability at 2 days, 12.5 µM (in vitro): 100%
- viability at 2 days, 25 µM (in vitro): 88.9%
- viability at 2 days, 50 µM (in vitro): 72.1%
- viability at 2 days, 100 µM (in vitro): 15.5%
- IC50 ([3]; estimated from fitted dose-response curves): 1.17 µM
- activity at 0.0001 µM [3]: 91.2%
- activity at 0.0005 µM [3]: 90.2%
- activity at 0.001 µM [3]: 95.5%
- activity at 0.0025 µM [3]: 94.9%
- activity at 0.005 µM [3]: 95.5%
- activity at 0.013 µM [3]: 85.5%
- activity at 0.025 µM [3]: 82.4%
- activity at 0.063 µM [3]: 79.8%
- activity at 0.125 µM [3]: 78.8%
- activity at 0.313 µM [3]: 62.7%
- activity at 0.625 µM [3]: 60.2%
- activity at 1.5 µM [3]: 41.5%
- activity at 3 µM [3]: 23.2%
- activity at 15 µM [3]: 1.19%
- activity at 37.5 µM [3]: 0.14%
- activity at 75 µM [3]: 0.62%
- Log IC50 B. taurus complex I [3]: 0.07 µM
- LC50 [4, 6]: 85.3 µM
- viability at 1 µM [4, 7]: 99.9%
- viability at 2 µM [4, 7]: 97.1%
- viability at 3.9 µM [4, 7]: 100%
- viability at 15.6 µM [4, 7]: 100%
- viability at 31.3 µM [4, 7]: 99.5%
- viability at 62.5 µM [4, 7]: 84.2%
- viability at 125 µM [4, 7]: 10.6%
- viability at 250 µM [4, 7]: 16.7%
- LC50 [4, 8]: 85.3 µM

Compound: Cc1ccc(OCCn2cnc3ccccc32)cc1 [Compound 5671538]
- Screen "Hit" (L1 wild-type C. elegans [1]; hit = relative motility below 0.25 3 hours after removal of KCN): Y (hits were identified as compounds that reduced relative motility below 0.25 (75% reduction))
- C. elegans KCN Survival (L1 wild-type C. elegans [1]; [5]): 0.927
- C. elegans KCN Survival (L1 wild-type C. elegans [1]; Dose 0.39 µM): 0.931
- C. elegans KCN Survival (L1 wild-type C. elegans [1]; Dose 1.56 µM): 0.891
- C. elegans KCN Survival (L1 wild-type C. elegans [1]; Dose 3.13 µM): 0.844
- C. elegans KCN Survival (L1 wild-type C. elegans [1]; Dose 6.25 µM): 0.828
- C. elegans KCN Survival (L1 wild-type C. elegans [1]; Dose 12.5 µM): 0.784
- C. elegans KCN Survival (L1 wild-type C. elegans [1]; Dose 25 µM): 0.550
- C. elegans KCN Survival (L1 wild-type C. elegans [1]; Dose 50 µM): 0.033
- C. elegans KCN Survival (L1 wild-type C. elegans [1]; Dose 100 µM): 0.00256
- LC50 (L1 wild-type C. elegans [2]): 28.3 µM
- CC50 at 2 days (in vitro): > 100 µM
- viability at 2 days, 3.13 µM (in vitro): 92.2%
- viability at 2 days, 6.25 µM (in vitro): 98.5%
- viability at 2 days, 12.5 µM (in vitro): 97.1%
- viability at 2 days, 25 µM (in vitro): 96.2%
- viability at 2 days, 50 µM (in vitro): 96.4%
- viability at 2 days, 100 µM (in vitro): 61.4%
- IC50 [3]: 17.4 µM
- activity at 0.0001 µM [3]: 94.3%
- activity at 0.0005 µM [3]: 97.5%
- activity at 0.001 µM [3]: 95.2%
- activity at 0.0025 µM [3]: 100%
- activity at 0.005 µM [3]: 98.6%
- activity at 0.013 µM [3]: 95.8%
- activity at 0.025 µM [3]: 97.5%
- activity at 0.063 µM [3]: 95%
- activity at 0.125 µM [3]: 89.3%
- activity at 0.313 µM [3]: 91.3%
- activity at 0.625 µM [3]: 85.9%
- activity at 1.5 µM [3]: 84.9%
- activity at 3 µM [3]: 86.7%
- activity at 15 µM [3]: 57.1%
- activity at 37.5 µM [3]: 33.8%
- activity at 75 µM [3]: 14.5%
- Log IC50 B. taurus complex I [3]: 1.24 µM
- LC50 [4, 6]: > 1000 µM
- viability at 15.6 µM [4, 7]: 100%
- viability at 31.3 µM [4, 7]: 100%
- viability at 62.5 µM [4, 7]: 100%
- viability at 125 µM [4, 7]: 100%
- viability at 250 µM [4, 7]: 100%
- viability at 500 µM [4, 7]: 100%
- viability at 1000 µM [4, 7]: 100%
- LC50 ([4]; read-out: C. elegans ben-1 LC50): > 500 µM
- LC50 [4, 8]: > 500 µM
